{"source": "ChEMBL document CHEMBL1201862", "about": "“PubChem BioAssay data set” (2004)", "experiment_in_all_cases": "NCI-60 cell line screen, 48 h", "key": {"786-0": {"tested_on": "786-0"}, "A498": {"tested_on": "A498"}, "A549": {"tested_on": "A549"}, "ACHN": {"tested_on": "ACHN"}, "BT-549": {"tested_on": "BT-549"}, "CAKI-1": {"tested_on": "CAKI-1"}, "CCRF-CEM": {"tested_on": "CCRF-CEM"}, "COLO 205": {"tested_on": "COLO 205"}, "DU-145": {"tested_on": "DU-145"}, "EKVX": {"tested_on": "EKVX"}, "HCT-116": {"tested_on": "HCT-116"}, "HCT-15": {"tested_on": "HCT-15"}, "HL-60": {"tested_on": "HL-60"}, "HOP-92": {"tested_on": "HOP-92"}, "HT-29": {"tested_on": "HT-29"}, "Hs-578T": {"tested_on": "Hs-578T"}, "IGROV-1": {"tested_on": "IGROV-1"}, "K562": {"tested_on": "K562"}, "KM12": {"tested_on": "KM12"}, "LOX IMVI": {"tested_on": "LOX IMVI"}, "M14": {"tested_on": "M14"}, "MCF7": {"tested_on": "MCF7"}, "MDA-MB-231": {"tested_on": "MDA-MB-231"}, "MDA-MB-435": {"tested_on": "MDA-MB-435"}, "MDA-N": {"tested_on": "MDA-N"}, "MOLT-4": {"tested_on": "MOLT-4"}, "Malme-3M": {"tested_on": "Malme-3M"}, "NCI-H226": {"tested_on": "NCI-H226"}, "NCI-H23": {"tested_on": "NCI-H23"}, "NCI-H460": {"tested_on": "NCI-H460"}, "NCI-H522": {"tested_on": "NCI-H522"}, "NCI/ADR-RES": {"tested_on": "NCI/ADR-RES"}, "OVCAR-3": {"tested_on": "OVCAR-3"}, "OVCAR-4": {"tested_on": "OVCAR-4"}, "OVCAR-5": {"tested_on": "OVCAR-5"}, "OVCAR-8": {"tested_on": "OVCAR-8"}, "PC-3": {"tested_on": "PC-3"}, "RPMI-8226": {"tested_on": "RPMI-8226"}, "RXF 393": {"tested_on": "RXF 393"}, "SF-295": {"tested_on": "SF-295"}, "SF-539": {"tested_on": "SF-539"}, "SK-MEL-28": {"tested_on": "SK-MEL-28"}, "SK-MEL-2": {"tested_on": "SK-MEL-2"}, "SK-MEL-5": {"tested_on": "SK-MEL-5"}, "SK-OV-3": {"tested_on": "SK-OV-3"}, "SNB-19": {"tested_on": "SNB-19"}, "SNB-75": {"tested_on": "SNB-75"}, "SR": {"tested_on": "SR"}, "SW-620": {"tested_on": "SW-620"}, "T47D": {"tested_on": "T47D"}, "TK-10": {"tested_on": "TK-10"}, "U-251": {"tested_on": "U-251"}, "UACC-257": {"tested_on": "UACC-257"}, "UACC-62": {"tested_on": "UACC-62"}, "UO-31": {"tested_on": "UO-31"}}, "note": "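1) Cells in 96-well plates. 2) Compound, 48 h, 5 concentrations. 3) Linear interpolation between surrounding doses. 4) Unreached endpoint = highest concentration. GI50: concentration for 50% inhibition of growth.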 Activity calls are given as the source filed them. Rule as the data show it: active = GI50 up to about 1.1 µM and inactive = higher."}
{"smiles": "CN(C)NC(=S)Nc1ccccc1Br", "values": [{"measurement": "GI50", "setting": "786-0", "value": "> 100 µM (inactive)"}, {"measurement": "GI50", "setting": "A498", "value": "> 100 µM (inactive)"}, {"measurement": "GI50", "setting": "A549", "value": "> 100 µM (inactive)"}, {"measurement": "GI50", "setting": "ACHN", "value": "> 100 µM (inactive)"}, {"measurement": "GI50", "setting": "BT-549", "value": "> 100 µM (inactive)"}, {"measurement": "GI50", "setting": "CAKI-1", "value": "> 100 µM (inactive)"}, {"measurement": "GI50", "setting": "CCRF-CEM", "value": "> 100 µM (inactive)"}, {"measurement": "GI50", "setting": "COLO 205", "value": "> 100 µM (inactive)"}, {"measurement": "GI50", "setting": "DU-145", "value": "> 100 µM (inactive)"}, {"measurement": "GI50", "setting": "EKVX", "value": "> 100 µM (inactive)"}, {"measurement": "GI50", "setting": "HCT-116", "value": "> 100 µM (inactive)"}, {"measurement": "GI50", "setting": "HCT-15", "value": "> 100", "unit": "µM"}, {"measurement": "GI50", "setting": "HL-60", "value": "> 100 µM (inactive)"}, {"measurement": "GI50", "setting": "HOP-92", "value": "> 100 µM (inactive)"}, {"measurement": "GI50", "setting": "HT-29", "value": "> 100 µM (inactive)"}, {"measurement": "GI50", "setting": "Hs-578T", "value": "> 100 µM (inactive)"}, {"measurement": "GI50", "setting": "IGROV-1", "value": "> 100 µM (inactive)"}, {"measurement": "GI50", "setting": "K562", "value": "> 100 µM (inactive)"}, {"measurement": "GI50", "setting": "KM12", "value": "> 100 µM (inactive)"}, {"measurement": "GI50", "setting": "LOX IMVI", "value": "> 100 µM (inactive)"}, {"measurement": "GI50", "setting": "M14", "value": "> 100 µM (inactive)"}, {"measurement": "GI50", "setting": "MCF7", "value": "> 100 µM (inactive)"}, {"measurement": "GI50", "setting": "MDA-MB-231", "value": "> 100 µM (inactive)"}, {"measurement": "GI50", "setting": "MDA-MB-435", "value": "> 100 µM (inactive)"}, {"measurement": "GI50", "setting": "MDA-N", "value": "> 100 µM (inactive)"}, {"measurement": "GI50", "setting": "MOLT-4", "value": "> 100 µM (inactive)"}, {"measurement": "GI50", "setting": "Malme-3M", "value": "> 100 µM (inactive)"}, {"measurement": "GI50", "setting": "NCI-H226", "value": "> 100 µM (inactive)"}, {"measurement": "GI50", "setting": "NCI-H23", "value": "> 100 µM (inactive)"}, {"measurement": "GI50", "setting": "NCI-H460", "value": "> 100 µM (inactive)"}, {"measurement": "GI50", "setting": "NCI-H522", "value": "> 100 µM (inactive)"}, {"measurement": "GI50", "setting": "NCI/ADR-RES", "value": "> 100 µM (inactive)"}, {"measurement": "GI50", "setting": "OVCAR-3", "value": "> 100 µM (inactive)"}, {"measurement": "GI50", "setting": "OVCAR-4", "value": "> 100 µM (inactive)"}, {"measurement": "GI50", "setting": "OVCAR-5", "value": "> 100 µM (inactive)"}, {"measurement": "GI50", "setting": "OVCAR-8", "value": "> 100 µM (inactive)"}, {"measurement": "GI50", "setting": "PC-3", "value": "> 100 µM (inactive)"}, {"measurement": "GI50", "setting": "RPMI-8226", "value": "> 100 µM (inactive)"}, {"measurement": "GI50", "setting": "RXF 393", "value": "> 100 µM (inactive)"}, {"measurement": "GI50", "setting": "SF-295", "value": "> 100 µM (inactive)"}, {"measurement": "GI50", "setting": "SF-539", "value": "> 100 µM (inactive)"}, {"measurement": "GI50", "setting": "SK-MEL-28", "value": "> 100 µM (inactive)"}, {"measurement": "GI50", "setting": "SK-MEL-2", "value": "> 100 µM (inactive)"}, {"measurement": "GI50", "setting": "SK-MEL-5", "value": "> 100 µM (inactive)"}, {"measurement": "GI50", "setting": "SK-OV-3", "value": "> 100 µM (inactive)"}, {"measurement": "GI50", "setting": "SNB-19", "value": "> 100 µM (inactive)"}, {"measurement": "GI50", "setting": "SNB-75", "value": "46.5 µM (inactive)"}, {"measurement": "GI50", "setting": "SR", "value": "> 100 µM (inactive)"}, {"measurement": "GI50", "setting": "SW-620", "value": "> 100 µM (inactive)"}, {"measurement": "GI50", "setting": "T47D", "value": "> 100 µM (inactive)"}, {"measurement": "GI50", "setting": "TK-10", "value": "> 100 µM (inactive)"}, {"measurement": "GI50", "setting": "U-251", "value": "> 100 µM (inactive)"}, {"measurement": "GI50", "setting": "UACC-257", "value": "> 100 µM (inactive)"}, {"measurement": "GI50", "setting": "UACC-62", "value": "> 100 µM (inactive)"}, {"measurement": "GI50", "setting": "UO-31", "value": "> 100 µM (inactive)"}]}
